Measurements published in patent publication EP4345091A1, “BENZOIC ACID DERIVATIVES, METHODS AND USES THEREOF” (priority 2022, dated 2024).
Values after ≈ are worked out from the molar mass of the structure shown. Read-outs that look alike come from different tables or passages of the source.

Key:
[1] = system: Mycobacterium tuberculosis H37Rv; experiment: MIC and MBC by broth microdilution against M. tuberculosis H37Rv; type: cell-based, Mycobacterium tuberculosis H37Rv (ATCC 27294); conditions: Mycobacterium tuberculosis, H37RV
[2] = system: Mycobacterium smegmatis homogenate; experiment: Stability in Mycobacterium smegmatis homogenate (enzymatic hydrolysis); conditions: Mycobacterium smegmatis homogenate, 37°C
[3] = Cytotoxicity assay in THP-1 cells; type: cell-based, human; conditions: human, THP-1 cells, read-out: LC50 (the source's name)
Excerpt: (§1) Cytotoxicity results were obtained through lethal concentration for 50% of the cell population, LC50. Table 6. Results obtained from cytotoxicity assays for the esters, represented by LD50 in µg/mL and comparison with MIC values, in µg/mL with toxicity/activity (T/A) index.
(§2) The T/A index quantitatively is the ratio between the lethal concentration (LC50) given by the minimum inhibitory concentration (MIC).

[4] = system: human monocytic cell line THP-1 (ATCC56 TIB202); experiment: Cytotoxicity assay in THP-1 cells; type: cell-based; conditions: toxicity/activity index: ratio LC50 (THP-1) / MIC (M. tuberculosis H37Rv)
Excerpt: as §1, §2

[5] = Chemical stability in phosphate buffer pH 7.4
Procedure: Chemical hydrolysis was evaluated in phosphate buffer at physiological pH (7.4) to determine its influence in enzymatic studies.
1176 µL pH 7.4 phosphate buffer or pH 5.9 phosphate buffer, 18 µL ACN and 6 µL of a 10-1 M stock solution of the prodrug in ACN were mixed in a 2mL vial. The solution was incubated at 37 °C and 50 µL aliquots were removed, mixed with 450 µL of ACN: H2O 1:1. The solution was analysed by HPLC, the remaining substrate and the correspondent acid were both measured.
The eluant was a mixture of acetonitrile (60%/70%) and aqueous phosphate buffer with 5% of KH2PO4/H3PO4 0.025M (40%/30%). The flow rate was always 1 mL/1 min and wavelength was set at 230 nm. All quantifications were evaluated using calibration curves from stock solutions.
The initial substrate concentration was 5 x 10^-4 M in all stability assays. All incubations were carried out at pH 7.4 and 37 °C under agitation using the phosphate buffer described above as diluting agent. […] Acetonitrile (2%) was used in all studies to ensure adequate solubilization of the substrates.

[6] = Stability in human plasma (enzymatic hydrolysis)
Procedure: The studies of stability in human plasma were performed in human plasma diluted to 80% with phosphate buffer pH 7.4 of total concentration 0.05 M and ionic strength 0.15 M at 37°C. […] Study of enzymatic hydrolysis. […] Initial substrate concentration (ester) - 5×10^-4M with 2% ACN.
Pooled human plasma (960 µL), pH 7.4 phosphate buffered saline (216 µL), 18 µL ACN and 6 µL of a 10-1 M stock solution of the prodrug in ACN were mixed in a 2mL vial. The suspensions were incubated at 37 °C and 50 µL aliquots were removed, mixed with 450 µL of ACN: ZnSO4 1% 1:1 and centrifuged. The supernatant was removed and analysed by HPLC, the remaining substrate and the correspondent acid measured.
Two HPLC systems were used. The buffer and plasma stability studies were performed in an HPLC system with a photodiode detector L-3000 Photo Diode Array Detector, Merck-Hitachi L-6000 pump, Merck-Hitachi D-2500 integrator, and Merck RP-8 column. […] The eluant was a mixture of acetonitrile (60%/70%) and aqueous phosphate buffer with 5% of KH2PO4/H3PO4 0.025M (40%/30%). The flow rate was always 1 mL/1 min and wavelength was set at 230 nm. All quantifications were evaluated using calibration curves from stock solutions.
The initial substrate concentration was 5 x 10^-4 M in all stability assays. All incubations were carried out at pH 7.4 and 37 °C under agitation using the phosphate buffer described above as diluting agent. […] Acetonitrile (2%) was used in all studies to ensure adequate solubilization of the substrates. The benzoates were added from 10 to 1M acetonitrile stock solutions. After incubation, aliquots of 50 µL were taken into vials containing 450 µL of a 1:1 solution of 1% zinc sulfate and acetonitrile, mixed in a vortex and centrifuged for 10 min at 15,000 rpm. The supernatant was then injected into the HPLC and analysed for quantification of benzoic acid and remaining benzoate. All quantifications were performed using calibration curves.

[7] = system: Mycobacterium Bovis BCG infecting human macrophages THP-1; type: cell-based
[8] = M. tuberculosis H37Rv, Table 3, read-out: MBC
[9] = M. tuberculosis H37Rv, Tables 3, 6 and 7, read-out: MIC
[10] = THP-1 monocytic cells, lethal concentration for 50% of the cell population
[11] = Time 0 days, compound concentration 2 µg/ml
[12] = Time 1 day, compound concentration 2 µg/ml
[13] = Time 3 days, compound concentration 2 µg/ml
[14] = Time 7 days, compound concentration 2 µg/ml
[15] = n/d (no toxicity at maximum tested dose)
[16] = THP-1 monocytic cells, n/d (no toxicity at maximum tested dose)

| SMILES | MBC [1, 8] [µg/mL] | MIC [1, 9] [µg/mL] | Degradation (%) 24h [2] [%] | Degradation (%) 48h [2] [%] | CC50 [3, 10] [µg/mL] | T/A [4] | Degradation (%) 24h [5] [%] | Degradation (%) 48h [5] [%] | Degradation (%) 72h [5] [%] | Degradation (%) 168h [5] [%] | Degradation (%) 332h [5] [%] | Degradation (%) 24h [6] [%] | Degradation (%) 48h [6] [%] | Degradation (%) 72h [6] [%] | also measured |
| --- | --- | --- | --- | --- | --- | --- | --- | --- | --- | --- | --- | --- | --- | --- | --- |
| CCCCCCNC(=O)c1ccccc1 [Compound 5b, N-hexyl-benzamide] | 64 (≈ 312 µM) | 64 (≈ 312 µM) | 1 | 2 | – | – | – | – | – | – | – | – | – | – | – |
| CCCCCCCCNC(=O)c1ccc([N+](=O)[O-])cc1 [Compound 6c, N-octyl-4-nitrobenzamide] | 256 (≈ 920 µM) | 128 (≈ 460 µM) | 3 | 5 | 308 (≈ 1110 µM) | 2 | 0 | 0 | 0 | 0 | 0 | 0 | 0 | 1 | – |
| CCCCCCCCCCNC(=O)c1cc([N+](=O)[O-])cc(C(F)(F)F)c1 [Compound 8d, N-decyl-3-nitro-5-(trifluoromethyl)-benzamide] | 0.5 (≈ 1.34 µM) | 0.5 (≈ 1.34 µM) | 2 | 3 | 53 (≈ 142 µM) | 106 | – | – | – | – | – | – | – | – | – |
| CCCCCCCCOC(=O)c1cc([N+](=O)[O-])cc([N+](=O)[O-])c1 [Compound 3c] | – | – | 10 | 19 | – | – | 0 | 0 | 1 | 2 | 3 | 57 | 81 | 92 | MBC [1]: 8 µg/mL (≈ 24.7 µM); MIC [1]: 8 µg/mL (≈ 24.7 µM) |
| CCCCNC(=O)c1ccccc1 [Compound 5a, N-butyl-benzamide] | 256 (≈ 1440 µM) | 256 (≈ 1440 µM) | 2 | 3 | – | – | 0 | 0 | 0 | 0 | 0 | 0 | 0 | 0 | – |
| NNC(=O)c1ccncc1 [INH, isoniazid, reference compound] | 0.05 (≈ 0.365 µM) | 0.025 (≈ 0.182 µM) | – | – | – | – | – | – | – | – | – | – | – | – | CFU x10^4 ([7]; Time 0 days, concentration 0.1 µg/ml): 9.2 CFUs per mL; CFU x10^4 ([7]; Time 1 day, concentration 0.1 µg/ml): 9.91 CFUs per mL; CFU x10^4 ([7]; Time 3 days, concentration 0.1 µg/ml): 1.33 CFUs per mL; CFU x10^4 ([7]; Time 7 days, concentration 0.1 µg/ml): 0.24 CFUs per mL |
| CCCCCCNC(=O)c1cc([N+](=O)[O-])cc(C(F)(F)F)c1 [Compound 8b, N-hexyl-3-nitro-5-(trifluoromethyl)-benzamide] | ≤ 0.5 | ≤ 0.5 | 7 | 14 | 23 (≈ 72.3 µM) | 46 | – | – | – | – | – | – | – | – | – |
| CCCCCCCCCCCCNC(=O)c1ccc([N+](=O)[O-])cc1 [Compound 6e, N-dodecyl-4-nitrobenzamide] | 256 (≈ 765 µM) | 256 (≈ 765 µM) | 2 | 3 | – | – | 0 | 0 | 0 | 0 | 0 | 0 | 0 | 1 | – |
| CCCCCCCCCCCCCCOC(=O)c1cc([N+](=O)[O-])cc([N+](=O)[O-])c1 [Compound 3f] | – | – | 3 | 6 | – | – | – | – | – | – | – | 23 | 51 | 65 | MBC [1]: > 1020 µg/mL; MIC [1]: 16 µg/mL (≈ 39.2 µM); CFU x10^4 [7, 11]: 9.2 CFUs per mL; CFU x10^4 [7, 12]: 12.16 CFUs per mL; CFU x10^4 [7, 13]: 13.66 CFUs per mL; CFU x10^4 [7, 14]: 7.25 CFUs per mL; CC50 [3, 15]: > 512 µg/mL |
| CCCCCCCCOC(=O)c1cc([N+](=O)[O-])cc(C(F)(F)F)c1 [Compound 4c, Octyl 3-nitro-5-(trifluoromethyl)benzoate] | – | – | 8 | 16 | – | – | 0 | 1 | 1 | 3 | 6 | 42 | 67 | 81 | – |
| CCCCCCCCCCCCNC(=O)c1ccccc1 [Compound 5e, N-dodecyl-benzamide] | > 256 | > 256 | 0 | 0 | – | – | 0 | 0 | 0 | 0 | 0 | 0 | 0 | 0 | – |
| CCCCCCCCCCCCNC(=O)c1cc([N+](=O)[O-])cc(C(F)(F)F)c1 [Compound 8e, N-dodecyl-3-nitro-5-(trifluoromethyl)-benzamide] | 0.5 (≈ 1.24 µM) | 0.5 (≈ 1.24 µM) | 1 | 3 | 113 (≈ 281 µM) | 226 | 0 | 0 | 0 | 0 | 0 | 0 | 0 | 0 | – |
| CCCCCCCCNC(=O)c1cc([N+](=O)[O-])cc(C(F)(F)F)c1 [Compound 8c, N-octyl-3-nitro-5-(trifluoromethyl)-benzamide] | 0.063 (≈ 0.182 µM) | 0.063 (≈ 0.182 µM) | 5 | 11 | 14 (≈ 40.4 µM) | 222 | 0 | 0 | 0 | 0 | 0 | 0 | 0 | 0 | – |
| CCCCCCCCNC(=O)c1ccccc1 [Compound 5c, N-octyl-benzamide] | 32 (≈ 137 µM) | 32 (≈ 137 µM) | 1 | 2 | 188 (≈ 806 µM) | 6 | 0 | 0 | 0 | 0 | 0 | 0 | 0 | 0 | – |
| CCCCCCCCCCCCOC(=O)c1cc([N+](=O)[O-])cc(C(F)(F)F)c1 [Compound 4e, Dodecyl 3-nitro-5-(trifluoromethyl)benzoate] | > 1020 | > 1020 | 3 | 6 | – | – | 1 | 2 | 3 | 6 | 11 | 1 | 2 | 3 | CC50 [3, 16]: > 512 µg/mL |
| CCCCCCCCCCOC(=O)c1cc([N+](=O)[O-])cc([N+](=O)[O-])c1 [Compound 3d, Decyl 3,5-dinitrobenzoate] | – | – | 5 | 9 | – | – | – | – | – | – | – | 18 | 32 | 44 | MBC [1]: 4 µg/mL (≈ 11.4 µM); MIC [1]: 4 µg/mL (≈ 11.4 µM); CFU x10^4 [7, 11]: 9.2 CFUs per mL; CFU x10^4 [7, 12]: 12.5 CFUs per mL; CFU x10^4 [7, 13]: 12.5 CFUs per mL; CFU x10^4 [7, 14]: 8.5 CFUs per mL; CC50 [3, 16]: > 512 µg/mL |
| CCCCCCCCCCCCCCCCOC(=O)c1cc([N+](=O)[O-])cc([N+](=O)[O-])c1 [Compound 3g, Hexadecyl 3,5-dinitrobenzoate] | – | – | 2 | 4 | – | – | – | – | – | – | – | 1 | 3 | 4 | MBC [1]: > 1020 µg/mL; MIC [1]: > 1020 µg/mL; CC50 [3, 16]: > 512 µg/mL |
| CCCCCCCCCCCCOC(=O)c1cc([N+](=O)[O-])cc([N+](=O)[O-])c1 [Compound 3e] | – | – | 4 | 8 | – | – | 0 | 0 | 1 | 1 | 2 | 29 | 50 | 65 | MBC [1]: 16 µg/mL (≈ 42.1 µM); MIC [1]: 8 µg/mL (≈ 21 µM); CC50 [3, 15]: > 512 µg/mL |
| CCCCCCCCCCOC(=O)c1cc([N+](=O)[O-])cc(C(F)(F)F)c1 [Compound 4d, Decyl 3-nitro-5-(trifluoromethyl)benzoate] | 256 (≈ 682 µM) | 128 (≈ 341 µM) | 5 | 10 | – | – | – | – | – | – | – | 26 | 45 | 60 | CC50 [3, 16]: > 512 µg/mL |
